Experiments:
A. niger = experiment: Evaluation of antibacterial property, minimum inhibitory concentration; format: cell-based
Procedure: (§1) To evaluate an antibacterial property of the solvent compositions for extracting a natural material in examples 2 and 3, and comparative examples 3 and 4, minimum inhibitory concentration (MIC; %) of a total of five microorganisms was measured. A lower minimum inhibitory concentration (%) may denote a more excellent antibacterial property.

C. albicans = experiment: as above; format: cell-based
Procedure: as §1

E. coli = experiment: as above; format: cell-based
Procedure: as §1

P. aeruginosa = experiment: as above; format: cell-based
Procedure: as §1

S. aureus = experiment: as above; format: cell-based
Procedure: as §1

skin = experiment: Evaluation of skin irritation, patch test (PCPC Safety Evaluation Guidelines, ICDRG standard); format: in vivo, human; details: patch test on 32 people, 30 wt %
Procedure: To evaluate skin irritation caused by solvent compositions for extracting a natural material in example 1 and comparative examples 1, 2 and 3, a patch test was conducted on a total of 32 people. The solvent compositions for extracting a natural material in example 1 and comparative examples 1, 2 and 3 were all at a concentration of 30 wt %, and the patch test was performed under the PCPC Safety Evaluation Guidelines and the ICDRG standard.

| Structure (SMILES) | A. niger (MIC %) (A. niger) [%] | C. albicans (MIC %) (C. albicans) [%] | E. coli (MIC %) (E. coli) [%] | P. aeruginosa (MIC %) (P. aeruginosa) [%] | S. aureus (MIC %) (S. aureus) [%] | Cases with skin irritation (skin) | Skin irritation category under ICDRG standard (skin) | Skin irritation index 30 minutes (skin) | Skin irritation index 24 hours (skin) | Skin irritation index 48 hours (skin) | Cases with skin irritation (skin; listed as comparative example 3) |
| --- | --- | --- | --- | --- | --- | --- | --- | --- | --- | --- | --- |
| CC(O)C(C)O (single isomer, unassigned) [Example 2, levo-2,3-butanediol] | 12.5 | 12.5 | 15 | 10 | 25 | – | – | – | – | – | – |
| CC(O)C(C)O (single isomer, unassigned) [Example 3, meso-2,3-butanediol] | 12.5 | 12.5 | 12.5 | 6.25 | 25 | – | – | – | – | – | – |
| OCCCO [Comparative example 2, 1,3-propanediol] | – | – | – | – | – | 0 | no skin irritation | 0.0 | 0.0 | 0.0 | – |
| CC(O)CCO (centres unmarked) [Comparative example 3, 1,3-butanediol] | 12.5 | 12.5 | 17.5 | 12.5 | 25 | 2 | minor skin irritation | 0.5 | 0.0 | 0.0 | two |
| OCCCO [Comparative example 4, 1,3-propanediol] | 25 | 25 | 22 | 12.5 | 25 | – | – | – | – | – | – |
| CC(O)C(C)O (centres unmarked) [Example 1, 2,3-butanediol] | – | – | – | – | – | 0 | no skin irritation | 0.0 | 0.0 | 0.0 | – |
| CC(O)C(C)O (centres unmarked) [compound 1, 2,3-butanediol] | – | – | – | – | – | 0 | no skin irritation | 0.0 | 0.0 | 0.0 | – |
